The text below walks through data of patent publication US9963451B2, “Fused ring pyrimidine compound and pest control agent containing the same” (Mitsui Chemicals Agro, Inc., priority 2013, dated 2018).

What all share (format): in vivo
One experiment relates to Laodelphax striatellus. Description: whole plant or invertebrate. Here is the method: Insecticidal Test Against Laodelphax striatellus
A chemical solution diluted to have a pre-determined concentration was sprayed to young rice plant (breed: Koshihikari) followed by air drying. Then, it was added to a glass test tube (diameter of 3 cm and height of 10 cm) added with water together with ten 3-stage larvae of Laodelphax striatellus. The tube was then covered. The number of living insects was determined after 6 days and the dead insect ratio was calculated. There were two series, i.e., 10 insects per group. Meanwhile, in Table 29, when combination of two types of test chemicals are used (i.e., A and B), the combination of the two types was described as A+B, and in the concentration column (ppm), it was described as concentration of A+concentration of B.

A further experiment has as its system Chilo suppressalis. Description: Test Example 10: insecticidal test against Chilo suppressalis (rice stem dip, single and combined chemicals). Conditions: after 6 days. Here is the method:
Insecticidal Test Against Chilo suppressalis
A stem part was cut from a rice plant (breed: Koshihikari) cultivated in water and it was immersed in a chemical solution which has been diluted to have a pre-determined concentration. After air drying, it was put into a 9 cm polyethylene cup having a water-wetted filter paper laid on the bottom thereof, and 3-stage larvae of Chilo suppressalis were released and covered. They were left to stand in an incubator at 25° C., and the numbers of living insects and dead insects were examined after 6 days. There were two series, i.e., 5 insects per group. Meanwhile, in Table 30, when combination of two types of test chemicals are used (i.e., A and B), the combination of the two types was described as A+B, and in the concentration column (ppm), it was described as concentration of A+concentration of B.

A further experiment has as its system Myzus persicae. Nature of the experiment: Test Example 12: insecticidal test against Myzus persicae (leaf spray on young white radish plant, single and combined chemicals). Conditions: after 5 days. Here is the method: Insecticidal Test Against Myzus persicae
A chemical solution which has been diluted to have a pre-determined concentration was sprayed on a leaf part of young white radish plant having 1-stage larvae Myzus persicae present thereon. After air drying, they were left to stand in an incubator at 25° C. and the numbers of living insects and dead insects were examined after 5 days (2 series). Meanwhile, in Table 32, when combination of two types of test chemicals are used (i.e., A and B), the combination of the two types was described as A+B, and in the concentration column (ppm), it was described as concentration of A+concentration of B.

In experiment [1] the test system is Nilaparvata lugens. Description: Test Example 3: insecticidal test against Nilaparvata lugens (spray on young rice plant). Conditions: after 6 days.
Experiment [2] has as its system Nilaparvata lugens. The experiment is described as above. Conditions: after 6 days. The protocol:
Insecticidal Test Against Nilaparvata lugens
2.5 ml of acetone solution prepared to have the test compound at the pre-determined concentration described in the following Table 28 was sprayed to young rice plant followed by air drying. Then, it was added to a glass bottle (diameter of 3 cm and height of 13 cm) added with water. Ten sensitive Nilaparvata lugens (3-stage) were released therein, and then the bottle was covered with a cap. After keeping them in an incubator at 25° C., the numbers of living insects and dead insects were determined after 6 days (two series). Meanwhile, as a comparative compound, imidacloprid was used.
The source holds these as a separate data set.

Experiment [3] has as its system Nilaparvata lugens. Description: Test Example 13: insecticidal test against Nilaparvata lugens using paddy field rice cultivating box (granule treatment). Conditions: 2.25 g a.i./box granules. The protocol:
Insecticidal Test Against Nilaparvata lugens Using Paddy Field Rice Cultivating Box
A rice plant (breed: Koshihikari) cultivated in cultivating box was treated with granules with a pre-determined chemical amount, and it was transplanted in two pots, i.e., four plants per 1/5000a pot. Twenty-two days after the treatment, 10 female adults of Nilaparvata lugens were released and the young plants were covered with a mesh. Then, the insect death ratio was determined after 5 days. In addition, the number of the next generation larvae was determined after 22 days. There were two series. Meanwhile, in Table 33, when combination of two types of test chemicals (i.e., A and B), the combination of the two types was described as A+B, and in the chemical amount column (g a.i./box), it was described as chemical amount of A+chemical amount of B.

A further experiment deals with Pyricularia oryzae. Nature of the experiment: whole plant or invertebrate. Conditions: Pyricularia oryzae, 168 h, read-out: Rice blast control value.
The test system of a further experiment is Plutella xylostella. Nature of the experiment: Test Example 4: insecticidal test against Plutella xylostella (cabbage leaf dip). Conditions: foliar, 144 h, read-out: insect death ratio. The protocol:
Insecticidal Test Against Plutella xylostella
A piece of a cabbage leaf was immersed for 30 seconds in a chemical solution in which the test compound had been added at a predetermined concentration, and air dried, and then put into a 7 cm polyethylene cup having a filter paper laid on the bottom thereof, and five 3-stage larvae of Plutella xylostella were released. They were left to stand in an incubator at 25° C., and the numbers of living insects and dead insects were examined after 6 days. There was no series.

The mark [4] stands for this setting: Laodelphax striatellus, in Oryza sativa, 144 h, read-out: Insect death ratio (%).
The mark [5] stands for this setting: Laodelphax striatellus, in Oryza sativa, 144 h, 1 ppm, after 6 days, read-out: Insect death ratio (%).
[6] abbreviates: Chilo suppressalis, 144 h, 1 ppm, read-out: Insect death ratio (%).
The mark [7] stands for this setting: Chilo suppressalis, 144 h, read-out: Insect death ratio (%).
The mark [8] stands for this setting: concentration of 1000 ppm, cabbage leaf dip, 3-stage larvae, 25° C., after 6 days.

Counter-ions that a name gives are not always drawn. Like-named read-outs stand apart in the source and are kept apart here.

Regarding `COP(=O)(NC(C)=O)SC` (stereo not shown) [Acephate, acephate], in the experiment with Laodelphax striatellus (setting [4]), the pest or weed control at 3 ppm amounted to 20%.

In the case of `CC(C)N1C(=O)N(c2ccccc2)CS/C1=N\C(C)(C)C` [Buprofezin, buprofezin], the pest or weed control at 1 ppm in the experiment on Laodelphax striatellus (setting [5]) turned out to be 70%.

On to `CN(C)C(CSC(N)=O)CSC(N)=O` [Cartap, Cartap hydrochloride], for which the pest or weed control at 300 ppm in the experiment with Chilo suppressalis (Chilo suppressalis, 144 h, 300 ppm, read-out: Insect death ratio (%)) was 90%.

As to `CNC(=O)c1cc(Cl)cc(C)c1NC(=O)c1cc(Br)nn1-c1ncccc1Cl` [Chlorantraniliprole, chlorantraniliprole], the pest or weed control at 1 ppm in the experiment on Chilo suppressalis (setting [6]) was 80%.

In the case of `CNC(=O)c1cc(C#N)cc(C)c1NC(=O)c1cc(Br)nn1-c1ncccc1Cl` [Cyantraniliprole, cyantraniliprole], the pest or weed control at 1 ppm with Chilo suppressalis (setting [6]) was 80%.

With `CN(C(=O)c1ccccc1)c1cccc(C(=O)Nc2c(Br)cc(C(F)(C(F)(F)F)C(F)(F)F)cc2C(F)(F)F)c1F` [DD-1], the pest or weed control at 0.1 ppm in the experiment on Chilo suppressalis (setting [7]) came to 90%.

As for `CN(C(=O)c1ccc(F)cc1)c1cccc(C(=O)Nc2c(I)cc(C(F)(C(F)(F)F)C(F)(F)F)cc2C(F)(F)F)c1F` [DD-2], the pest or weed control at 0.1 ppm in the experiment with Chilo suppressalis (setting [7]) was 100%.

Consider `O=C(Nc1c(I)cc(C(F)(C(F)(F)F)C(F)(F)F)cc1C(F)(F)F)c1cccc(NC(=O)c2cccnc2Cl)c1` [DD-3], for which, in the experiment on Chilo suppressalis (setting [7]), the pest or weed control at 0.1 ppm stood at 100%.

With `CN/C(=N/CC1CCOC1)N[N+](=O)[O-]` (stereo not shown) [Dinotefuran, dinotefuran], the “Insect death ratio (%)” value in the experiment with Myzus persicae (10 ppm) is reported as 75%. Further, the pest or weed control at 1 ppm in the experiment with Laodelphax striatellus (setting [4]) is 45%.

As for `CC[S+]([O-])c1c(C#N)nn(-c2c(Cl)cc(C(F)(F)F)cc2Cl)c1N` (stereo not shown) [Ethiprole, ethiprole], in the experiment on Laodelphax striatellus (Laodelphax striatellus, in Oryza sativa, 144 h, 3 ppm, after 6 days, read-out: Insect death ratio (%)), the pest or weed control at 3 ppm was 20%.

On to `CCOc1ccc(C(C)(C)COCc2cccc(Oc3ccccc3)c2)cc1` [Ethofenprox, ethofenprox], for which the “Insect death ratio (%)” value in the experiment with Chilo suppressalis (100 ppm) is 100%; with Laodelphax striatellus (30 ppm, after 6 days) it was 40%.

Take `N#Cc1nn(-c2c(Cl)cc(C(F)(F)F)cc2Cl)c(N)c1[S+]([O-])C(F)(F)F` (stereo not shown) [Fipronil, fipronil]: the pest or weed control at 1 ppm with Laodelphax striatellus (setting [5]) stood at 70%.

As for `N#CCNC(=O)c1cnccc1C(F)(F)F` [Flonicamid, flonicamid], the “Insect death ratio (%)” value in the experiment with Myzus persicae (1 ppm) was determined as 79%.

As for `Cc1cc(C(F)(C(F)(F)F)C(F)(F)F)ccc1NC(=O)c1cccc(I)c1C(=O)NC(C)(C)CS(C)(=O)=O` [Flubendiamide, flubendiamide], the pest or weed control at 1 ppm with Chilo suppressalis (setting [6]) stood at 80%.

For `Cc1cc(O)no1` [Hydroxyisoxazole, hydroxyisoxazole], in the experiment with Laodelphax striatellus (600 ppm, after 6 days), the “Insect death ratio (%)” value came to 0%.

Take `O=[N+]([O-])NC1=NCCN1Cc1ccc(Cl)nc1` [Imidacloprid, imidacloprid, reference compound]: the “Resistant insect death ratio (%)” value amounted to 21.7% with Nilaparvata lugens [1] (10 ppm spray) and 50.4% in the experiment with Nilaparvata lugens [1] (100 ppm spray). The “Insect death ratio (%)” value with Myzus persicae (1 ppm) came out at 100%. Also, the “Sensitive insect death ratio (%)” value in the experiment on Nilaparvata lugens [2] (10 ppm spray) and with Nilaparvata lugens [2] (100 ppm spray) was 100% in each case. The pest or weed control at 0.1 ppm with Laodelphax striatellus (Laodelphax striatellus, in Oryza sativa, 144 h, 0.1 ppm, after 6 days, read-out: Insect death ratio (%)) turned out to be 30%.

Consider `CC(C)CC(C)c1sccc1NC(=O)c1cn(C)nc1C(F)(F)F` (stereo not shown) [Penthiopyrad, penthiopyrad], for which the “Insect death ratio (%)” value in the experiment on Myzus persicae (100 ppm) was 13%.

As to `CC1=NNC(=O)N(/N=C/c2cccnc2)C1` [Pymetrozine, pymetrozine], in the experiment with Myzus persicae (1 ppm), the “Insect death ratio (%)” value turned out to be 89%. Moreover, in the experiment with Laodelphax striatellus (Laodelphax striatellus, in Oryza sativa, 144 h, 10 ppm, after 6 days, read-out: Insect death ratio (%)), the pest or weed control at 10 ppm was found to be 30%.

On to `CC(=O)N1C(=O)N(NCc2cccnc2)Cc2cc(C(F)(C(F)(F)F)C(F)(F)F)ccc21` [Pyrifluquinazon, pyrifluquinazon], for which the “Insect death ratio (%)” value with Myzus persicae (1 ppm) was 100%.

Turning to `C[Si](C)(C)CC(O)(Cn1cncn1)c1ccc(F)cc1` (stereo not shown) [Simeconazole, simeconazole, reference compound], the “Adult insect death ratio (%)” value in the experiment on Nilaparvata lugens [3] (adults released 22 days after treatment, after 5 days) stood at 20%. Also, in the experiment with Nilaparvata lugens [3] (next generation larvae after 22 days), the “Number of larvaes (number of insects)” value was 69 number of insects.

In the case of `CN1COCN(Cc2cnc(Cl)s2)/C1=N\[N+](=O)[O-]` [Thiamethoxam, thiamethoxam], the “Insect death ratio (%)” value with Myzus persicae (1 ppm) came to 94%.

Take `Cc1cccc2sc3nncn3c12` [Tricyclazole, tricyclazole]: in the experiment with Pyricularia oryzae, the pest or weed control at 2 ppm is 98% and the pest or weed control at 200 ppm was determined as 97%.

With `Cc1cc(=O)n2nc(SCc3cccc(C(F)(F)F)c3)nc2n1Cc1ccc(Cl)nc1` [compound 16], the pest or weed control at 1000 ppm with Plutella xylostella (setting [8]) was ≥ 70%.

As for `Cc1cc(=O)n2nc(SCCC(F)(F)F)nc2n1Cc1ccc(Cl)nc1` [compound 22], in the experiment with Plutella xylostella, the pest or weed control at 1000 ppm is ≥ 70%.

With `Cc1cc(=O)n2nc(SCCCC(F)(F)F)nc2n1Cc1ccc(Cl)nc1` [compound 23], in the experiment with Plutella xylostella, the pest or weed control at 1000 ppm is ≥ 70%.

Consider `CSc1nc2n(Cc3ccc(Cl)nc3)c(C)cc(=S)n2n1` [compound 24, 4-((6-chloropyridin-3-yl)methyl)-5-methyl-2-(methylthio)-[1,2,4]triazolo[1,5-a]pyrimidin-7(4H)-thione], for which the pest or weed control at 1000 ppm in the experiment with Plutella xylostella is ≥ 70%.

`CCc1c(C)n(Cc2ccc(Cl)nc2)c2nc(SC)nn2c1=O` [compound 25]: the pest or weed control at 1000 ppm in the experiment with Plutella xylostella was ≥ 70%.

Regarding `Cc1cc(=O)n2nc(-c3ccccc3F)nc2n1Cc1ccc(Cl)nc1` [compound 28], the pest or weed control at 1000 ppm in the experiment with Plutella xylostella was ≥ 70%.

With `CCSc1nc2n(Cc3ccc(Cl)nc3)c(C)cc(=O)n2n1` [compound 29], the pest or weed control at 1000 ppm with Plutella xylostella was ≥ 70%.

Take `Cc1cc(=O)n2nc(OC(C)c3ccc(C(F)(F)F)cc3)nc2n1Cc1ccc(Cl)nc1` (stereo not shown) [compound 106]: the pest or weed control at 1000 ppm in the experiment with Plutella xylostella (setting [8]) is ≥ 70%.

As for `Cc1cc(=O)n2nc([S+]([O-])CC(F)(F)F)nc2n1Cc1ccc(Cl)nc1` (stereo not shown) [compound 189], the pest or weed control at 1000 ppm in the experiment with Plutella xylostella was ≥ 70%.

On to `CSc1cc2n(Cc3ccc(Cl)nc3)c(C)c(C)c(=O)n2n1` [compound 236], for which the pest or weed control at 1000 ppm in the experiment on Plutella xylostella is ≥ 70%.

For `CSc1cc2n(Cc3ccc(Cl)nc3)c(C)c(F)c(=O)n2n1` [compound 237], the pest or weed control at 1000 ppm in the experiment on Plutella xylostella was ≥ 70%.

For the molecule `Cc1cc(=O)n2nc(C(F)F)cc2n1Cc1ccc(Cl)nc1` [compound 241], in the experiment on Plutella xylostella, the pest or weed control at 1000 ppm was ≥ 70%.

As to `CCSc1cc2n(Cc3ccc(Cl)nc3)c(C)cc(=O)n2n1` [compound 243], the pest or weed control at 1000 ppm in the experiment with Plutella xylostella was ≥ 70%.

As to lepimectin, the “Insect death ratio (%)” value in the experiment on Myzus persicae (10 ppm) is given as 88%.

For milbemectin, in the experiment with Myzus persicae (10 ppm), the “Insect death ratio (%)” value is 86%.

Regarding spinetoram, the “Insect death ratio (%)” value in the experiment on Chilo suppressalis (1 ppm) amounted to 100%.

For spinosad, the “Insect death ratio (%)” value in the experiment with Chilo suppressalis (1 ppm) is 70%.
